{
  "source": "patent US20060008891A1",
  "about": "“Cathepsin G-related peptides as modulators of formylpeptide receptors (FPR)” (The Government of USA as repersented by the Secretary, …, priority 2004, published 2006)",
  "molecules": {"B1": {"name": "Cathepsin G (CaG), purified from neutrophil granules (protein)", "chain": "IIGGRESRPHSRPYMAYLQIQSPAGQSRCGGFLVREDFVLTAAHCWGSNINVTLGAHNIQRRENTQQHITARRAIRHPQYNQRTIQNDIMLLQLSRRVRRNRNVNPVALPRAQEGLRPGTLCTVAGWGRVSMRRGTDTLREVQLRVQRDRQCLRIFGSYDPRRQICVGDRRERKAAFKGDSGGPLLCNNVAHGIVSYGKSSGVPPEVFTRVSSFLPWIRTTMRS"}, "B2": {"name": "Cathepsin G (CaG), purified from neutrophil granules (enzyme)", "chain": "B1 chain", "modifications": "iodinated (^125I, chloramine-T method) in the direct binding assay only"}},
  "key": {"monocytes": {"test_system": "monocytes", "experiment": "Chemotaxis assay, monocytes", "type": "cell-based, human", "conditions": "pre-incubation fMLF 100 nM or MMK-1 5 μM, 37° C. 30 min, washing; CaG 10 μg/ml", "description": "Human PBMC were isolated from leukopacks obtained through the courtesy of Transfusion Medicine Department, National Institutes of Health Clinical Center (Bethesda, Md.) by Ficoll-Hypaque density gradient centrifugation. Monocytes were purified from human PBMC by Percoll gradient to yield>90% pure preparations. […] H. Ali and R. Snyderman, Duke University (Durham, N.C.) and maintained in the presence of 0.8 mg/ml geneticin (G418, Life Technologies, Rockville, Md.) in DMEM supplemented with 10% FCS. B. Chemotaxis assay Migration of phagocytes and ETFR cells was assessed using a 48-well microchemotaxis chamber (Neuroprobe, Cabin John, Md.) as previously described (Hu et al. (2001) J Leukoc Biol 70 15512). Briefly, different concentrations of stimulants were placed in the wells of the lower compartment of the chamber, and 50 μl cells (1.5×10^6 cells/ml for monocyte and neutrophil, 1×10^6 ETFR cells/ml) were added to the wells of the upper compartment. The lower and upper compartments were separated by either a 5-μm (for monocyte) or a 10-μm pore size, collagen-coated (for ETFR cells) polycarbonate filter (Osmonics, Livermore, Calif.). After incubation at 37° C. in humidified air with 5% CO2 (60 min for neutrophils, 90 min for monocytes, 4.5 h for ETFR cells), the filter was removed and stained, and the cells migrating across the filter were counted with light microscopy. The results are presented as the mean number of cells (±SD) in three high power fields (HPFs). […] After thorough washing with cold medium (RPMI 1640, 1% BSA), the cells were resuspended and assayed. To measure the effect of various signaling inhibitors, unless otherwise indicated, the cells were pre-incubated at 37° C. for 60 min with the inhibitors, and were then added to the upper wells of the chemotaxis chamber."}, "parental RBL cells": {"test_system": "parental RBL cells", "experiment": "Chemotaxis assay, parental RBL cells", "type": "cell-based, rat", "conditions": "parental RBL cells without FPR", "description": "Human PBMC were isolated from leukopacks obtained through the courtesy of Transfusion Medicine Department, National Institutes of Health Clinical Center (Bethesda, Md.) by Ficoll-Hypaque density gradient centrifugation. Monocytes were purified from human PBMC by Percoll gradient to yield>90% pure preparations. […] H. Ali and R. Snyderman, Duke University (Durham, N.C.) and maintained in the presence of 0.8 mg/ml geneticin (G418, Life Technologies, Rockville, Md.) in DMEM supplemented with 10% FCS. B. Chemotaxis assay Migration of phagocytes and ETFR cells was assessed using a 48-well microchemotaxis chamber (Neuroprobe, Cabin John, Md.) as previously described (Hu et al. (2001) J Leukoc Biol 70 15512). Briefly, different concentrations of stimulants were placed in the wells of the lower compartment of the chamber, and 50 μl cells (1.5×10^6 cells/ml for monocyte and neutrophil, 1×10^6 ETFR cells/ml) were added to the wells of the upper compartment. The lower and upper compartments were separated by either a 5-μm (for monocyte) or a 10-μm pore size, collagen-coated (for ETFR cells) polycarbonate filter (Osmonics, Livermore, Calif.). After incubation at 37° C. in humidified air with 5% CO2 (60 min for neutrophils, 90 min for monocytes, 4.5 h for ETFR cells), the filter was removed and stained, and the cells migrating across the filter were counted with light microscopy. […]"}, "ERK1/2": {"test_system": "ERK1/2", "experiment": "Phosphorylation of ERK1/2 in ETFR cells (Western blot)", "type": "cell-based, rat", "conditions": "ETFR cells; fMLF at 100 nM", "description": "ETFR cells were plated in Petri dishes and cultured in DMEM at 37° C. in humidified 5% CO2 atmosphere for 48 h. After further culture in serum-free DMEM overnight, the cells were treated with stimulants for indicated time periods. The reaction was stopped by adding 1 ml ice-cold PBS, and the cells were lysed in 1×SDS lysis buffer (62.5 mM Tris-HCl, 2% w/v SDS, 10% glycerol, 50 mM DTT, pH 6.8) and harvested into tubes for sonication. Proteins (50 μg for each sample) were resolved by SDS-PAGE and transferred onto nitrocellulose membranes (Bio-Rad, Hercules, Calif.). The membranes were blocked for 2 h at room temperature in 3% non-fat milk prepared in Tris-buffered saline-T (10 mM Tris-HCl, pH 7.5, 150 mM NaCl, 0.1% Tween 20) and probed with anti-p-ERK1/2, p-p38 MAPK, or p-Akt (1:1000) at room temperature for 1-2 h or at 4° C. overnight. The membranes were then washed and incubated with horseradish peroxidase-conjugated secondary antibodies diluted in Tris-buffered saline-T for 1 h at room temperature. The immune complexes on the membranes were visualized using ECL reagents. Total ERK1/2, p38 MAPK, and Akt were visualized by stripping the same membrane and probing with antibodies against total ERK1/2, p38 MAPK, and Akt."}, "PKCζ": {"test_system": "PKCζ", "experiment": "PKCζ translocation in ETFR cells (confocal microscopy)", "type": "cell-based, rat", "conditions": "100 nM fMLF, 10 μg/ml CaG or PMA 500 nM, 37° C. 10 min", "description": "(§1) ETFR cells were seeded on coverslips and cultured overnight in DMEM containing 1% FCS at 37° C. After further culture in FCS-free DMEM for 3 h, cells were treated with stimulants for indicated time periods at 37° C. and were then fixed in 4% paraformaldehyde for 5 min at room temperature. The cells were permeabilized with 0.2% Tween 20 for 30 min at 4° C. and the reaction was blocked with 5% goat normal serum for 15 min at room temperature. The rabbit anti-PKCα/β, δ, and ξ, antibodies (1:1000 in DPBS) were applied separately for 1 h at room temperature. After three rinses with DPBS, the cells were stained with FITC-labeled goat anti-rabbit secondary antibody (PharMingen, 1:1000 in DPBS) for 1 h at room temperature. The coverslips were mounted with an anti-fade, water-based mounting medium with Propidium Iodide (PI) (Vector Lab, Burlingamem, Calif.) and analyzed under a laser scanning confocal fluorescence microscope (Zeiss LSM510 NLO Meta, Jena, Germany). Excitation wavelengths 488 (for FITC) and 568 (for PI) nm were used to generate fluorescence emission in green and red, respectively."}, "PKCα/β": {"test_system": "PKCα/β", "experiment": "PKCα/β translocation in ETFR cells", "type": "cell-based, rat", "conditions": "100 nM fMLF, 10 μg/ml CaG or PMA 500 nM, 37° C. 10 min", "description": "as §1"}, "PKCδ": {"test_system": "PKCδ", "experiment": "PKCδ translocation in ETFR cells", "type": "cell-based, rat", "conditions": "100 nM fMLF, 10 μg/ml CaG or PMA 500 nM, 37° C. 10 min", "description": "as §1, with “The cells were permeabilized with 0.2% Tween 20 for 30 min at 4° C. and the reaction was blocked with 5% goat normal serum for 15 min at room temperature.” left out, “Germany).” for “Germany). Excitation wavelengths 488 (for FITC) and 568 (for PI) nm were used to generate fluorescence emission in green and red, respectively.”"}, "PKC isozymes": {"test_system": "PKC isozymes", "experiment": "PKC translocation in parental RBL cells", "type": "cell-based, rat", "conditions": "100 nM fMLF, 10 μg/ml CaG or PMA 500 nM, 37° C. 10 min"}, "[1]": {"target": "epitope-tagged human FPR stably expressed on rat basophilic leukemia (RBL) cells (ETFR cells) (human) (UniProt P21462)", "experiment": "displacement of 3 nM ^3[H]-fMLF from ETFR cells, filter binding"}, "[2]": {"target": "human formylpeptide receptor (FPR), native or wild type, on cells (human) (UniProt P21462)", "experiment": "displacement of 3 nM ^3[H]-fMLF from human monocytes, filter binding"}, "[3]": {"target": "T1, epitope-tagged human FPR stably expressed on rat basophilic leukemia (RBL) cells (ETFR cells), P21462", "T1 chain": "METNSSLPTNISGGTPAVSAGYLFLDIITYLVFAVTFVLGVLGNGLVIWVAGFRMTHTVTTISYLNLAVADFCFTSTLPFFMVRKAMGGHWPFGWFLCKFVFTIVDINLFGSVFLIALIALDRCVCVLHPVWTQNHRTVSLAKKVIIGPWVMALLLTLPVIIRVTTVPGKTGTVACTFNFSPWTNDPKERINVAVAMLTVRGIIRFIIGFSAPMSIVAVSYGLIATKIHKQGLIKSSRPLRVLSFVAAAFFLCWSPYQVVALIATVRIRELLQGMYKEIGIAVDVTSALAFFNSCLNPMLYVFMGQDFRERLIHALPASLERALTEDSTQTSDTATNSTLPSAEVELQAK"}, "[4]": {"target": "T2, human formylpeptide receptor (FPR), native or wild type, on cells, P21462", "T2 chain": "T1 chain"}, "[5]": {"target": "T3, epitope-tagged human FPR stably expressed on rat basophilic leukemia (RBL) cells (ETFR cells) (human, UniProt P21462 1-350)", "T3 construct": "whole, on cells; also called RBL cells transfected with FPR; not shown: neither its identity nor its position on FPR is stated", "T3 sequence (looked up)": "T1 chain", "experiment": "displacement of 3 nM ^3[H]-fMLF from ETFR cells by unlabeled CaG, filter binding"}, "[6]": {"target": "T4, human formylpeptide receptor (FPR), native or wild type, on cells (human, UniProt P21462 1-350)", "T4 construct": "whole, on cells; Used for assays on human monocytes and neutrophils (endogenous FPR) and on HEK293 cells transfected with wild type FPR", "T4 sequence (looked up)": "T1 chain", "experiment": "displacement of 3 nM ^3[H]-fMLF from human monocytes by unlabeled CaG, filter binding", "excerpt": "The cells were then filtered onto Whatman paper discs, which were air-dried and measured for Remission."}, "[7]": {"target": "T3, epitope-tagged human FPR stably …", "experiment": "binding of ^125I-CaG (25 nM) to ETFR cells with increasing unlabeled ligand, analysed with the LIGAND program", "quoted_text": "After incubation and rotation at room temperature for 1 h, the cells were pelleted through a 10% sucrose/PBS cushion for 1 min at 10,000 g. The supernatant was removed and the radioactivity associated with cell pellets was measured in a γ counter (CliniGamma, Pharmacia Biotech Inc.). The binding data were analyzed with a Macintosh computer-aided program LIGAND (Dr. P. Munson, Division of Computer Research and Technology, NIH, Bethesda, Md.)."}},
  "data": [
    {"molecule": "CSCC[C@H](NC=O)C(=O)N[C@@H](CC(C)C)C(=O)N[C@@H](Cc1ccccc1)C(=O)O", "note": "[fMLF, formyl-methionyl-leucyl-phyenyalanine]", "values": [
      {"measurement": "attenuation of monocyte chemotaxis to CaG after pre-incubation with agonist", "setting": "monocytes", "result": "attenuated monocyte response to CaG"},
      {"measurement": "migration of parental RBL cells", "setting": "parental RBL cells", "result": "Neither CaG nor fMLF induced migration of parental RBL cells"},
      {"measurement": "time of maximal effect on p-ERK", "setting": "ERK1/2", "result": 1, "unit": "min"},
      {"measurement": "translocation of PKCζ", "setting": "PKCζ", "result": "promoted the translocation of not only PKCξ, but also PKCα/β"},
      {"measurement": "translocation of PKCα/β", "setting": "PKCα/β", "result": "promoted the translocation of not only PKCξ, but also PKCα/β"},
      {"measurement": "translocation of PKCδ", "setting": "PKCδ", "result": "did not induce translocation of PKCδ"},
      {"measurement": "PKC translocation in parental RBL cells", "setting": "PKC isozymes", "result": "Neither CaG nor fMLF stimulated PKC translocation in parental RBL cells"}
    ]},
    {"molecule": "synthetic N-formyl peptide fMLF (formyl-methionyl-leucyl-phenylalanine)", "values": [
      {"measurement": "IC50", "setting": "[1]", "result": 3, "unit": "nM"},
      {"measurement": "IC50", "setting": "[2]", "result": 3, "unit": "nM"}
    ]},
    {"molecule": "B1", "values": [
      {"measurement": "phosphorylation of ERK1/2, p38 MAPK and Akt (Western blot)", "setting": "[3]", "result": "CaG also positively and rapidly (within 1-5 min) activated ERK1/2 (FIG. 5 A), p38 MAPK (FIG. 5 C), and Akt (FIG. 5 D)"},
      {"measurement": "monocyte migration (chemotaxis), concentration of maximal activity", "setting": "[4]", "result": "CaG dose-dependently induced monocyte migration (FIG. 1A), which reached maximal activity at a concentration of 5 µg/ml of the protein (200 nM)"}
    ]},
    {"molecule": "B2", "values": [
      {"measurement": "IC50", "setting": "[5]", "result": 100, "unit": "nM"},
      {"measurement": "IC50", "setting": "[6]", "result": 100, "unit": "nM"},
      {"measurement": "Kd", "setting": "[7]", "result": 85, "unit": "nM"}
    ]}
  ]
}
